Measurements: patent US20090028834A1 (priority 2007, published 2009)

Legend:
Assay type in all cases: cell-based
[1] = tested on: Colony Forming Unit—Megakaryocyte (CFU-Mk); assay: Colony forming unit (CFU) assay, human bone marrow cells; conditions: for effect of receptor antagonist on substance P-enhanced platelet colony formation: antagonist in the presence of substance P
Description: (§1) This study examined the formation of three different progenitor cell populations, erythrocytes, platelets and granulocytes/macrophages.
(§2) Bone marrow aspirates were obtained from three healthy donors between 18 and 35 years of age following appropriate guidelines and protocols. Bone marrow mononuclear cells were isolated using a Ficoll-Hypaque density gradient, separating red blood cells from the others. Cells from each donor were processed independently and used for setting up individual experiments to assess the effects, if any, of donor variability.
(§3) Cells (1×10^5) were plated in duplicate onto 35 mm tissue culture plates for each condition tested and set up as described in Rameshwar et al. 1993, Blood. 81:2, 391-398. Erythroid and granulocyte/macrophage cultures were plated using methylcellulose and megakaryocyte cultures (platelet precursors) used a collagen-based support (StemCell Technologies, Vancouver, Canada, catalogue #04973). […] CP 99,994 (Pfizer) was used as a neurokinin-1 receptor antagonist and SR 48968 (Sanofi) was used as a neurokinin-2 receptor antagonist.
Cultures were set up with limited cytokines and growth factors which would promote differentiation of one progenitor per plate.
Each compound was dissolved in endotoxin-free water to a final concentration of 0.1 mM. After reconstitution, the solutions were aliquoted into siliconized microcentrifuge tubes and exposed to nitrogen gas, eliminating oxygen in the head space of the enclosure. All aliquots were stored at −20° C. until use and used within one month of reconstitution. See, Rameshwar, et al. 1997, J. Immunol.
Cultures were incubated at 37° C. with 5% CO2 for approximately 14 days, after which colonies were manually enumerated using a microscope. To count megakaryocyte colonies, the cells were fixed followed by a staining procedure using the following antibodies: primary—mouse anti-human GP11b/111a, isotype control—mouse anti-trinitrophenyl, secondary—biotin-conjugated goat anti-mouse IgG, detection—avidin-alkaline phosphatase conjugate. […]

[2] = tested on: human bone marrow mononuclear cell (MNC) fraction; assay: CFC assay, multi-donor study, all seven cell populations (overall toxicity); conditions: three donors, highest doses (up to 1 nM)
Method: Compound was dissolved in 1 ml of Iscove's Modified Dulbecco's Medium (IMDM) and a serial dose response was prepared in single log doses so that the final dose in culture ranged from 1 nanoMolar (nM) to 1×10^−16 M. All working dilutions were performed in IMDM. Cell cultures from each donor were started at different times and a fresh solution of Homspera® was prepared for each individual experiment.
Starting with human bone marrow aspirate, the mononuclear cell (MNC) fraction from each aspirate was separated from whole bone marrow using Ficoll-Paque density gradient centrifugation.
The colony-forming cell (CFC) assay was performed using optimal growth factor/cytokine concentrations. The reagents and conditions were similar to those used in Example 3, except that no ATP measurements were performed. The MNC fraction from each bone marrow donor was dissolved in IMDM and cultured at a concentration of 5,000 cells/well in a Culture Master Mix (HemoGenix, Inc., Colorado Springs, Colo.). […]
The mean, standard deviation and percent coefficient of variation was calculated for all groups, transposed and plotted as a function of donor. The percent from control values were calculated and also plotted as a function of donor. […]

[3] = tested on: Colony Forming Unit—Erythroid (CFU-E); assay: Colony forming unit (CFU) assay, human bone marrow cells; conditions: about 14 days; FIG. 2
Description: as §1, §2, §3
(§4) The cytokines and growth factors added to Blast Forming Unit—Erythroid (BFU-E) cultures, Colony Forming Unit—Erythroid (CFU-E) cultures, and Colony Forming Unit—Granulocyte/Macrophage (CFU-GM) cultures were added as defined by proliferative units. […]

[4] = tested on: Blast Forming Unit—Erythroid (BFU-E); assay: as above; conditions: about 14 days; three donors; FIG. 1
Description: as §1, §2, §3, §4

COc1ccccc1CN[C@H]1CCCN[C@H]1c1ccccc1 [CP-99,994]
effect of receptor antagonist on substance P-enhanced platelet colony formation [1]: blocks the stimulatory activity of substance P

CC(C)C[C@H](NC(=O)CN(C)C(=O)[C@H](Cc1ccccc1)NC(=O)[C@H](Cc1ccccc1)NC(=O)[C@H](CCC(N)=O)NC(=O)[C@H](CCC(N)=O)NC(=O)[C@@H]1CCCN1C(=O)[C@H](CCCCN)NC(=O)[C@@H]1CCCN1C(=O)[C@@H](N)CCCNC(=N)N)C(=O)N[C@@H](CCS(C)(=O)=O)C(N)=O [Homspera®, [Sar^9, Met(O)2^11]-substance P]
toxicity [2]: no apparent toxicity

CC(=O)NC1(c2ccccc2)CCN(CC[C@H](CN(C)C(=O)c2ccccc2)c2ccc(Cl)c(Cl)c2)CC1 [SR48968]
effect of receptor antagonist on substance P-enhanced platelet colony formation [1]: no effect on substance P activity

Arg Pro Lys Pro Gln Gln Phe Phe Gly Leu Met [substance P]
CFU-E colony formation, enhancement from control values [3]: about 70%
BFU-E colony formation, increase from control values [4]: ~60%
concentration at which effective on platelet precursors [1]: 10^−8 M
